# Experimental data as given in US6352709B1, “Localized use of nitric oxide-adducts to prevent internal tissue damage” (NitroMed, Inc., priority 1993, dated 2002).
# Columns and labels:
# [1] = test system: platelet deposition; conditions: systemic administration, porcine carotid model; cited from earlier work
# [2] = test system: platelet deposition; assay: Indium-111-labeled platelet deposition and thrombus on coated dacron grafts in transected carotid arteries; format: in vivo, dogs; conditions: for average percent increase in graft weight due to thrombus formation on the luminal surface: dacron grafts, dog carotid artery, 2 hours, three grafts
# From the text: This method requires the removal of platelets from an animal or human subject. The platelets are labeled with a radioactive material such as Indium^111, which emits gamma rays, detectable by a gamma counter placed 3 to 6 inches away from the source of radioactive platelets. The labeled platelets are either reinjected into the animal or human […], or contacted with the artificial surface […]. Platelets will adhere to artificial surfaces or acutely damaged arterial surfaces. Thus, the number of normal platelets and radioactive platelets which stick to the surface is an indication of the thrombogenicity of the surface.
# First, the inventors coated dacron grafts and cardiac catheters with S-nitroso-bovine serum albumin (BSA). In three separate experiments, an identical pair of 6 mm. (internal diameter) knitted dacron grafts, 5 cm. in length, were prepared for surgical placement in the transected carotid arteries of three anesthetized dogs. No heparin was given. One graft was soaked in 5% BSA and the other graft was soaked in 5% BSA combined with 0.5 mM nitric oxide (producing S-nitroso-BSA) for one hour prior to insertion, and then rinsed in saline. The grafts were sutured in place with a continuous 6-0 proline suture.
# Indium^111-labeled platelets are very useful in detecting platelet accumulation on vascular grafts. Therefore, Indium^111-labeled platelets were prepared according to standard methods described in Heyns “Method for Labeling Platelets with In^111-oxine”. In: Platelet Kinetics and Imaging Vol. II, Editors Heyns et al., CRC Press, 1985; and Sheffel et al., J. Nucl. Med., 20: 524-531, 1979, and injected prior to insertion of the grafts. […] The grafts were then placed in a Nal gamma well counter and counted for four minutes.
# [3] = test system: platelet deposition; assay: Indium-111-labeled platelet deposition on coated 5 FR USC1 catheters in femoral arteries; format: in vivo, dogs; conditions: 5 FR catheters in dog femoral arteries 2 hours, counted four minutes, average of three
# From the text: In addition, three pairs of 5 FR USC1 catheters were studied. One catheter was soaked in 5% BSA, while the other catheter was soaked in a mixture of S-nitroso BSA for one hour. The catheters were rinsed with saline and one each was inserted into the right or left femoral arteries of the dogs described above, and left for two hours. Each catheter was flushed with normal saline every one-half hour, but no heparin was given. The catheters were then removed and rinsed with saline. Equal lengths of the catheters were cut from the distal ends and each one was placed in a Nal gamma counter and the radioactivity was counted for four minutes.
# [4] = test system: platelet deposition; assay: Indium-111-labeled platelet deposition on coated, dried and stored PVC tubing placed as femoral artery shunt; format: in vivo, dog; conditions: PVC tubing used three days after coating, femoral artery shunt 2 hours
# Description: The inventors conducted an additional experiment to investigate whether S-nitroso-BSA can be used to coat a surface such as polyvinyl chloride (PVC), and in addition, whether such surfaces can be treated at one time, and used at a later time. In this experiment, three pieces of PVC, 3 mm in internal diameter and 2 cm. in length were soaked in BSA for 4 hours, allowed to dry, and placed in a dark place. Three identical pieces of PVC tubing were soaked in an S-nitroso-BSA solution for 4 hours, dried, and also placed in the dark.
# Three days after coating, a pair of PVC tubing pieces, one coated with BSA, and one coated with S-nitroso-BSA, were placed as a shunt in each of the two femoral arteries of a dog. The dog was injected with Indium^111-labeled platelets as previously described. Two hours after the PVC shunts were placed in the circulation with radioactive platelets, they were removed and placed in the Nal gamma counter.
# [5] = test system: damaged coronary artery; assay: Cyclic flow reductions (CFRs) in damaged, stenosed coronary artery; format: in vivo, dogs; conditions: approximately 0.5 mM NO, given selectively into circumflex coronary artery
# [6] = test system: balloon-injured rabbit femoral artery; assay: Neointimal proliferation after balloon injury of femoral artery (morphometry); format: in vivo; conditions: 14 days after balloon injury, local delivery 15 minutes
# Description: Femoral arteries were isolated and balloon injured as described below. pS-BSA or pS-NO-BSA were applied in a paired fashion directly into the arterial lumen for 15 minutes and then blood flow was re-established. […] Neointimal proliferation is reported as the absolute neointimal area in FIG. 5A and as a ratio of neointima/media in FIG. 5B in 4-6 segments from each artery. Data are expressed as mean +/− SEM and are derived from 15 vessels in the BSA and S-NO-BSA groups, 11 vessels in the PS-BSA group, 7 vessels in the PS-NO-BSA and SHAM groups, and 5 in the SNP group. *P<0.05, pS-NO-BSA vs. PS-BSA. +/+P<0.05 Sodium nitroprusside vs. pS-BSA for both FIGS. 5A and 5B.
# Animal Preparation: All animal preparations were performed within the institutional guidelines of the Brockton/West Roxbury Department of Veteran Affairs Medical Center and Boston University Medical Center, and in accordance with the guiding principles of the American Physiological Society. New Zealand white rabbits (3.5-4.2 kg) of either sex were premedicated with 5 mg/kg intramuscular (IM) xylazine hydrochlolide (Miles Pharmaceuticals, Shawnee Mission, Kans.), and 0.1 mg/kg subcutaneous (SC) atropine sulfate (Lyphomed, Deerfield, Ill.) fifteen minutes prior to the induction of anesthesia. Anesthesia was induced with 40 mg/kg IM ketamine hydrochloride (Fort Dodge Laboratories, Fort Dodge, Ind.) and 5 mg/kg IM acepromazine maleate (Aveco Company, Inc., Fort Dodge, Ind.). Additional doses of ketamine hydrochloride were administered as necessary to maintain anesthesia. For survival studies, 100,000 U penicillin G (Apothecon of Bristol-Myers Squibb, Princeton, N.J.), was administered IM perioperatively. The skin over the femoral arteries was next infiltrated with 1% lidocaine (Astra Pharmaceuticals, Inc., Westborough, Mass.) and the common femoral arteries were exposed from the inguinal ligament to the superficial femoral artery. Arteries were cleared of connective tissue, side branches were ligated, and the superficial femoral artery was suspended with silk ties. A 1.5-to-2.0 cm length of femoral artery was isolated from the circulation proximally and distally with neurosurgical microaneurysm clips. The superficial femoral-artery was cannulated with a 2F Fogarty balloon catheter (American Edwards Laboratories, Santa Ana, Calif.) that was passed into the isolated segment of femoral artery. The balloon was inflated with sufficient air to generate slight resistance and withdrawn three times. A 20 g angiocath was then inserted in the arteriotomy and 1 ml of 25.8 mg/ml PS-NO-BSA or 49.2 mg/ml S-NO-BSA was administered over 15 minutes. The contralateral femoral artery was prepared identically and an appropriate control (25.8 mglml pS-BSA, 49.2 mg/ml BSA or 0.66 mg/ml sodium nitroprusside) was administered. For binding studies, 0.5 ml of [^125I]-labeled nitrosylated albumin or control was administered. Following administration of the agent, the superficial femoral artery was ligated and flow reestablished. Sham-operated animals underwent surgical exposure and sidebranch ligation, but no balloon injury was performed or local delivery administered. The area of balloon injury was marked by surgical staples in the adjacent muscle fascia. For chronic studies, the incision was closed with subcuticular absorbable suture and the animals allowed to recover. For acute studies, blood was allowed to circulate through the treated areas for 15 minutes prior to vessel harvest. In some experiments, a distant control vessel, the right carotid artery, was isolated and harvested without any other manipulation.
# A 7F plastic cannula was inserted into the abdominal aorta and the vessels perfused clear with saline followed by fixation at 100 mm Hg pressure with 10% buffered formalin. The vessels were stored in 10% buffered formalin and the samples paraffin-embedded and microtome-sectioned. […]
# [7] = test system: clotting on the catheter wall; assay: Clotting on coated 3 FR USC1 catheters implanted in carotid artery; format: in vivo, dogs; conditions: catheters soaked 12 hours, in dog carotid artery 6-8 hours, no heparin
# Description: In five anesthetized dogs, both carotid arteries were exposed. Two 3 FR USC1 catheters were prepared for arterial implantation. One catheter was soaked in a 5% BSA solution for 12 hours, while the other was soaked in a 5% BSA solution which also contained 1 mg/ml of sodium nitroprusside. One each of the two coated catheters was placed randomly in the right or left carotid artery of the dog through a small incision sealed with a 6-0 proline suture. The catheters were advanced for 5 cm into the arterial lumen. The dogs were not given any heparin. The catheters were removed 6-8 hours later and examined for clotting on the catheter wall and at the site where the catheter entered the carotid wall.
compound,measurement,setting,value
[NH-]c1c[n+](N2CCOCC2)no1 [SIN-1],reduction in platelet deposition,[1],2.3 fold
S-nitroso-bovine serum albumin [S-nitroso-BSA],average percent increase in graft weight due to thrombus formation on the luminal surface,[2],196% +/−71%
same,Indium^111-labeled platelet counts on catheter,[3],"2,850±800 counts"
same,Indium^111-labeled platelet counts on PVC shunt,[4],"97,510 counts/4 minutes"
same,passivation of damaged arterial wall compared with sodium nitroprusside,[5],better passivation and the effect lasts longer
same,neointima/media ratio,[6],0.72+/−0.084
same,neointimal area,[6],1.83+/−0.18 ×10^5 μm^2
"bovine serum albumin [BSA, reference compound]",Indium^111-labeled platelet counts on graft,"[2]; dacron grafts soaked 1 h, in dog carotid artery 2 hours, average of three grafts","654,000 +/−89,000 counts/4 minutes"
same,average percent increase in graft weight due to thrombus formation on the luminal surface,[2],410% +/−97%
same,Indium^111-labeled platelet counts on catheter,[3],"9,000±1,100 counts"
same,Indium^111-labeled platelet counts on PVC shunt,[4],"200,870 counts/4 minutes"
same,clotting on the catheter wall and entry site,[7],considerably more clotting
same,neointima/media ratio,[6],1.07+/−0.167
same,neointimal area,[6],2.54+/−0.33 ×10^5 μm^2
